In patent US9682961B2, “Quinazoline derivative” (CARNA BIOSCIENCES, INC., priority 2013, dated 2017):

What follows are molecules tested on Wnt/β-catenin signaling pathway (assay: TCF-luciferase reporter gene assay (Wnt-3a stimulated HEK 293 cells)). Details: Homo sapiens, HEK293, Wnt-3a stimulation, read-out: Inhibitory activity against the Wnt/β-catenin signaling pathway.
Type: cell-based
Description: Evaluation of inhibitory activity of the compounds of the present invention against the Wnt/β-catenin signaling pathway was performed by evaluating the inhibitory activity of the compounds of the present invention against the Wnt/β-catenin signaling pathway activated by the Wnt-3a ligand using a commercially available TCF-luciferase reporter gene assay system.
In a T75 flask, HEK 293 cells (ATCC No. CRL-1573) were added to a DMEM medium (manufactured by NACALAI TESQUE, INC., No. 08459-35) supplemented with 10% FBS (AusGeneX PTY LTD.) and 1% Penicillin/Streptomycin (NACALAI TESQUE, INC.). The cells in the flask were cultured in a 5% CO2 incubator.
The cultured HEK 293 cells were diluted with a DMEM medium supplemented with only 10% FBS so as to have a cell concentration of 2×10^5 cells/mL, and 100 μL each of the diluted cells were seeded into respective wells of 96-well plates (PerkinElmer Inc., ViewPlate No. 6005181), followed by culturing overnight in the 5% CO2 incubator. To an OptiMEM medium (Invitrogen® No. 11058), pGL4.49 [luc2p/TCF-LEF-RE/Hygro] plasmid DNA (Promega Corporation) and FuGENE® HD (Promega No. E2691) were added so as to have concentrations of 1 μg/mL and 3 μg/mL, respectively, to prepare a transfection solution as described in the protocol attached to the reagent. To the respective wells containing the HEK 293 cells cultured overnight, 100 μL each of the transfection solution was added gently, followed by culturing overnight in the 5% CO2 incubator to perform transfection.
To a DMEM medium, 0.5% charcoal/dextran treated Fetal Bovine Serum (Thermo Scientific No. SH30068.02) and LiCl (Sigma-Aldrich No. L9650) were added to prepare a LiCl-containing medium (final concentration of LiCl: 10 mM). The medium in the respective wells of the HEK 293 cells cultured overnight and transfected with a reporter gene was removed by decantation. The LiCl-containing medium (90 μL) was added gently to each well, followed by culturing overnight in the 5% CO2 incubator.
A DMSO stock solution of the compound to be tested was diluted 100-fold with a LiCl-containing medium so as to prepare a solution of the compound to be tested, which is 10 times the test concentration. Further, Recombinant Mouse Wnt-3a (R&D Systems, Inc. #1324-WN) was dissolved in a 0.1% BSA-PBA solution so as to have a concentration of 40 μg/mL, and the resultant solution was diluted with a LiCl-containing medium so as to have a concentration of 100 ng/mL, to prepare a Wnt-3a solution. To each well of the HEK 293 cells cultured overnight in the LiCl-containing medium, 10 μL each of the solution of the compound to be tested was added, followed by culturing in the 5% CO2 incubator for 2 hours (the final concentration of the compound to be tested: 3-0.03 μM). Thereafter, 10 μL each of the Wnt-3a solution was added to the respective wells, followed by further culturing for 5 hours.
Using ONE-Glo™ Luciferase Assay System (Promega Corporation, No. E6110), the luciferase activity of the cells in the wells was measured by a microplate reader (Synergy H1, BioTek Instruments, Inc.) An IC50 value was calculated from the luminescence intensity of each compound concentration, supposing that the luminescence intensity of a group with no addition of the compound and with Wnt-3a stimulation was 100%, and that the luminescence intensity of a group with no addition of the compound and with no Wnt-3a stimulation was 0%.
In the case of `O[C@H]1CC[C@@H](Oc2cccc3cnc(Nc4ccc5[nH]c(CN6CCCC6)nc5c4)nc23)CC1` [Example 13, cis-4-[(2-{[2-(pyrrolidin-1-ylmethyl)-1H-benzo[d]imidazol-5-yl]amino}quinazolin-8-yl)oxy]cyclohexanol], the IC50 is reported as under 300 nM.
Molecule `OCc1nc2cc(Nc3ncc4cccc(O[C@H]5CC[C@@H](O)CC5)c4n3)ccc2[nH]1` [Example 14, cis-4-[(2-{[2-(hydroxymethyl)-1H-benzo[d]imidazol-5-yl]amino}quinazolin-8-yl)oxy]cyclohexanol] has an IC50 of 300 to 1000 nM.
`Cc1ccc2cnc(Nc3ccc4nc[nH]c4c3)nc2c1O[C@H]1CC[C@@H](O)CC1` [Example 17, cis-4-({2-[(1H-benzo[d]imidazol-6-yl)amino]-7-methylquinazolin-8-yl}oxy)cyclohexanol] gave an IC50 of 300 to 1000 nM.
`Cc1nc2ccc(Nc3ncc4ccc(Br)c(O[C@H]5CC[C@@H](O)CC5)c4n3)cc2[nH]1` [Example 18, cis-4-({7-bromo-2-[(2-methyl-1H-benzo[d]imidazol-6-yl)amino]quinazolin-8-yl}oxy)cyclohexanol] gave an IC50 of 300 to 1000 nM.
`Cc1nc2c(Br)cc(Nc3ncc4cccc(O[C@H]5CC[C@@H](O)CC5)c4n3)cc2[nH]1` [Example 19, cis-4-({2-[(4-bromo-2-methyl-1H-benzo[d]imidazol-6-yl)amino]quinazolin-8-yl}oxy)cyclohexanol] gave an IC50 of 1000 to 3000 nM.
With `Cc1nc2c(C)cc(Nc3ncc4cccc(O[C@H]5CC[C@@H](O)CC5)c4n3)cc2[nH]1` [Example 20, cis-4-({2-[(2,4-dimethyl-1H-benzo[d]imidazol-6-yl)amino]quinazolin-8-yl}oxy)cyclohexanol] the IC50 was 300 to 1000 nM.
`COCc1nc2ccc(Nc3ncc4cccc(O[C@H]5CC[C@@H](O)CC5)c4n3)cc2[nH]1` [Example 25, cis-4-[(2-{[2-(methoxymethyl)-1H-benzo[d]imidazol-6-yl]amino}quinazolin-8-yl)oxy]cyclohexanol] gave an IC50 of 300 to 1000 nM.
`O[C@H]1CC[C@@H](Oc2cccc3cnc(Nc4ccc5nc(C(F)(F)F)[nH]c5c4)nc23)CC1` [Example 26, cis-4-((2-{[2-(trifluoromethyl)-1H-benzo[d]imidazol-6-yl]amino}quinazolin-8-yl)oxy)cyclohexanol] was tested, and the IC50 was 1000 to 3000 nM.
Work on `C[C@H](O)c1nc2ccc(Nc3ncc4cccc(O[C@H]5CC[C@@H](O)CC5)c4n3)cc2[nH]1` [Example 27, cis-4-{[2-({2-[(S)-1-hydroxyethyl]-1H-benzo[d]imidazol-6-yl}amino)quinazolin-8-yl]oxy}cyclohexanol] yielded an IC50 of 300 to 1000 nM.
Molecule `OCc1cc(Nc2ncc3cccc(O[C@H]4CC[C@@H](O)CC4)c3n2)cc2[nH]cnc12` [Example 29, cis-4-[(2-{[4-(hydroxymethyl)-1H-benzo[d]imidazol-6-yl]amino}quinazolin-8-yl)oxy]cyclohexanol] has an IC50 of under 300 nM.
`Cc1cc2nc[nH]c2cc1Nc1ncc2cccc(O[C@H]3CC[C@@H](O)CC3)c2n1` [Example 30, cis-4-({2-[(5-methyl-1H-benzo[d]imidazol-6-yl)amino]quinazolin-8-yl}oxy)cyclohexanol] showed an IC50 of 300 to 1000 nM.
`O[C@H]1CC[C@@H](Oc2c(Br)ccc3cnc(Nc4ccc5nc[nH]c5c4)nc23)CC1` [Example 31] showed an IC50 of under 300 nM.
For `O[C@H]1CC[C@@H](Oc2cc(F)cc3cnc(Nc4ccc5nc[nH]c5c4)nc23)CC1` [Example 32, cis-4-({2-[(1H-benzo[d]imidazol-6-yl)amino]-6-fluoroquinazolin-8-yl}oxy)cyclohexanol], the IC50 was 300 to 1000 nM.
With `O[C@H]1CC[C@@H](Oc2cccc3cnc(Nc4ccc5ncccc5c4)nc23)CC1` [Example 35, cis-4-{[2-(quinolin-6-ylamino)quinazolin-8-yl]oxy}cyclohexanol] the IC50 was 300 to 1000 nM.
`O[C@H]1CC[C@@H](Oc2cccc3cnc(Nc4ccc5scnc5c4)nc23)CC1` [Example 36, cis-4-{[2-(benzo[d]thiazol-5-ylamino)quinazolin-8-yl]oxy}cyclohexanol] was tested, and the IC50 was under 300 nM.
In the case of `O[C@H]1CC[C@@H](Oc2cccc3cnc(Nc4ccnc5ccccc45)nc23)CC1` [Example 37, cis-4-{[2-(quinolin-4-ylamino)quinazolin-8-yl]oxy}cyclohexanol], the IC50 is reported as under 300 nM.
In the case of `Cc1ccc2cc(Nc3ncc4cccc(O[C@H]5CC[C@@H](O)CC5)c4n3)ccc2n1` [Example 38, cis-4-({2-[(2-methylquinolin-6-yl)amino]quinazolin-8-yl}oxy)cyclohexanol], the IC50 is reported as 300 to 1000 nM.
With `O[C@H]1CC[C@@H](Oc2cccc3cnc(Nc4ccc5cnccc5c4)nc23)CC1` [Example 39, cis-4-{[2-(isoquinolin-6-ylamino)quinazolin-8-yl]oxy}cyclohexanol] the IC50 was 300 to 1000 nM.
With `O[C@H]1CC[C@@H](Oc2cccc3cnc(Nc4ccc5ccncc5c4)nc23)CC1` [Example 40, cis-4-{[2-(isoquinolin-7-ylamino)quinazolin-8-yl]oxy}cyclohexanol] the IC50 was 1000 to 3000 nM.
Molecule `O[C@H]1CC[C@@H](Oc2cccc3cnc(Nc4cccc5cnccc45)nc23)CC1` [Example 41, cis-4-{[2-(isoquinolin-5-ylamino)quinazolin-8-yl]oxy}cyclohexanol] has an IC50 of 300 to 1000 nM.
With `O[C@H]1CC[C@@H](Oc2c(F)ccc3cnc(Nc4ccc5ncsc5c4)nc23)CC1` [Example 42, cis-4-{[2-(benzo[d]thiazol-6-ylamino)-7-fluoroquinazolin-8-yl]oxy}cyclohexanol] the IC50 was under 300 nM.
`O[C@H]1CC[C@@H](Oc2c(F)ccc3cnc(Nc4ccc5ncccc5c4)nc23)CC1` [Example 43, cis-4-{[7-fluoro-2-(quinolin-6-ylamino)quinazolin-8-yl]oxy}cyclohexanol] was tested, and the IC50 was under 300 nM.
Molecule `OCc1n[nH]c2cc(Nc3ncc4ccc(F)c(O[C@H]5CC[C@@H](O)CC5)c4n3)ccc12` [Example 44, cis-4-[(7-fluoro-2-{[3-(hydroxymethyl)-1H-indazol-6-yl]amino}quinazolin-8-yl)oxy]cyclohexanol] has an IC50 of under 300 nM.
`O[C@H]1CC[C@@H](Oc2cccc3cnc(Nc4ccnc5cc(F)ccc45)nc23)CC1` [Example 45, cis-4-({2-[(7-fluoroquinolin-4-yl)amino]quinazolin-8-yl}oxy)cyclohexanol] gave an IC50 of 300 to 1000 nM.
For `COc1ccc2c(Nc3ncc4cccc(O[C@H]5CC[C@@H](O)CC5)c4n3)ccnc2c1` [Example 46, cis-4-({2-[(7-methoxyquinolin-4-yl)amino]quinazolin-8-yl}oxy)cyclohexanol], the IC50 was 300 to 1000 nM.
